{"source": "patent US20250282799A1", "about": "“SUBSTITUTED PYRIDO[4,3-d]PYRIMIDINES AS KRAS MODULATORS” (Alterome Therapeutics, Inc., priority 2023, published 2025)", "test_system": "KRAS G12V dependent lung adenocarcinoma cell line, NCI-H441", "test": "Cellular pERK (Thr202/Tyr204) FRET/HTRF assay", "type": "cell-based", "conditions": "Homo sapiens, NCI-H441, cellular pERK (Thr202/Tyr204) HTRF, NCI-H441 cells", "summary_of_the_method": "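Using a mix-and-read HTRF kit, phospho-ERK (Thr202/Tyr204) was detected in NCI-H441 lysates following 1 hr compound incubation at 37 °C, 5% CO2. Cells had been seeded overnight beforehand, and IC50 was derived by curve fitting.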", "data": [{"compound": "C#Cc1c(F)ccc2cc(N)cc(-c3ncc4c(N5CCOC[C@H]6[C@H](F)[C@H]65)nc(OC[C@@]56CC[C@H](C)N5C[C@H](F)C6)nc4c3F)c12", "note": "[Example 259, 5-Ethynyl-6-fluoro-4-(8-fluoro-2-(((2R,5S,7aS)-2-fluoro-5-methyltetrahydro-1H-pyrrolizin-7a(5H)-yl)methoxy)-4-((1S,7S,8S)-8-fluoro-5-oxa-2-azabicyclo[5.1.0]octan-2-yl)pyrido[4,3-d]pyrimidin-7-yl)naphthalen-2-amine]", "values": [{"measurement": "IC50", "value": "< 50", "unit": "nM"}]}, {"compound": "[2H]C([2H])(Oc1nc(N2CCOC[C@H]3[C@H](F)[C@H]32)c2cnc(-c3cc(N)cc4ccc(F)c(C#C)c34)cc2n1)[C@@]12CCCN1C[C@H](F)C2", "note": "[Example 261, 5-ethynyl-6-fluoro-4-(4-((1S,7S,8S)-8-fluoro-5-oxa-2-azabicyclo[5.1.0]octan-2-yl)-2-(((2R,7aS)-2-fluorotetrahydro-1H-pyrrolizin-7a(5H)-yl)methoxy-d2)pyrido[4,3-d]pyrimidin-7-yl)naphthalen-2-amine]", "values": [{"measurement": "IC50", "value": "< 50", "unit": "nM"}]}, {"compound": "C#Cc1c(F)ccc2cc(N)cc(-c3ncc4c(N5CCOC[C@H]6[C@H](F)[C@H]65)nc(OC[C@@]56CCCN5C(C)(C)[C@H](F)C6)nc4c3F)c12", "note": "[Example 262, 5-ethynyl-6-fluoro-4-(8-fluoro-2-(((2R,7aS)-2-fluoro-3,3-dimethyltetrahydro-1H-pyrrolizin-7a(5H)-yl)methoxy)-4-((1S,7S,8S)-8-fluoro-5-oxa-2-azabicyclo[5.1.0]octan-2-yl)pyrido[4,3-d]pyrimidin-7-yl)naphthalen-2-amine]", "values": [{"measurement": "IC50", "value": "< 50", "unit": "nM"}]}, {"compound": "[2H]C([2H])(Oc1nc(N2CCOC[C@H]3[C@H](F)[C@H]32)c2cnc(-c3cc(NC(C)=O)cc4ccc(F)c(C#C)c34)c(F)c2n1)[C@@]12CCCN1C[C@H](F)C2", "note": "[Example 263, N-(5-ethynyl-6-fluoro-4-(8-fluoro-4-((1S,7S,8S)-8-fluoro-5-oxa-2-azabicyclo[5.1.0]octan-2-yl)-2-(((2R,7aS)-2-fluorotetrahydro-1H-pyrrolizin-7a(5H)-yl)methoxy-d2)pyrido[4,3-d]pyrimidin-7-yl)naphthalen-2-yl)acetamide]", "values": [{"measurement": "IC50", "value": "50 to 500", "unit": "nM"}]}, {"compound": "[2H]c1cc(F)c(C#C)c2c(-c3ncc4c(N5CCOC[C@H]6[C@H](F)[C@H]65)nc(OC([2H])([2H])[C@@]56CCCN5C[C@H](F)C6)nc4c3F)cc(N)cc12", "note": "[Example 264, 5-ethynyl-6-fluoro-4-(8-fluoro-4-((1S,7S,8S)-8-fluoro-5-oxa-2-azabicyclo[5.1.0]octan-2-yl)-2-(((2R,7aS)-2-fluorotetrahydro-1H-pyrrolizin-7a(5H)-yl)methoxy-d2)pyrido[4,3-d]pyrimidin-7-yl)naphthalen-8-d-2-amine]", "values": [{"measurement": "IC50", "value": "< 50", "unit": "nM"}]}, {"compound": "[2H]C([2H])(Oc1nc(N2CCOC[C@H]3[C@H](F)[C@H]32)c2cnc(-c3cc(N)cc4cccc(C#C)c34)c(F)c2n1)[C@@]12CCCN1C[C@H](F)C2", "note": "[Example 268, 5-ethynyl-4-(8-fluoro-4-((1S,7S,8S)-8-fluoro-5-oxa-2-azabicyclo[5.1.0]octan-2-yl)-2-(((2R,7aS)-2-fluorotetrahydro-1H-pyrrolizin-7a(5H)-yl)methoxy-d2)pyrido[4,3-d]pyrimidin-7-yl)naphthalen-2-amine]", "values": [{"measurement": "IC50", "value": "< 50", "unit": "nM"}]}, {"compound": "[2H]C([2H])(Oc1nc(N2CCOC[C@H]3[C@H](F)[C@H]32)c2cnc(-c3cc(N)cc4ccc(F)c(C#C)c34)c(Cl)c2n1)[C@@]12CCCN1C[C@H](F)C2", "note": "[Example 269, 4-(8-Chloro-4-((1S,7S,8S)-8-fluoro-5-oxa-2-azabicyclo[5.1.0]octan-2-yl)-2-(((2R,7aS)-2-fluorotetrahydro-1H-pyrrolizin-7a(5H)-yl)methoxy-d2)pyrido[4,3-d]pyrimidin-7-yl)-5-ethynyl-6-fluoronaphthalen-2-amine]", "values": [{"measurement": "IC50", "value": "< 50", "unit": "nM"}]}, {"compound": "[2H]C([2H])(Oc1nc(N2CCOC[C@H]3[C@H](F)[C@H]32)c2cnc(-c3cc(N)c(F)c(C4CC4)c3C(F)(F)F)c(F)c2n1)[C@@]12CCCN1C[C@H](F)C2", "note": "[Example 270, 3-cyclopropyl-2-fluoro-5-(8-fluoro-4-((1S,7S,8S)-8-fluoro-5-oxa-2-azabicyclo[5.1.0]octan-2-yl)-2-(((2R,7aS)-2-fluorotetrahydro-1H-pyrrolizin-7a(5H)-yl)methoxy-d2)pyrido[4,3-d]pyrimidin-7-yl)-4-(trifluoromethyl)aniline]", "values": [{"measurement": "IC50", "value": "50 to 500", "unit": "nM"}]}, {"compound": "[2H]C([2H])(Oc1nc(N2CCOC[C@H]3[C@H](F)[C@H]32)c2cnc(-c3c(F)c(N)cc(C)c3C(F)(F)F)c(F)c2n1)[C@@]12CCCN1C[C@H](F)C2", "note": "[Example 271, 2-fluoro-3-(8-fluoro-4-((1S,7S,8S)-8-fluoro-5-oxa-2-azabicyclo[5.1.0]octan-2-yl)-2-(((2R,7aS)-2-fluorotetrahydro-1H-pyrrolizin-7a(5H)-yl)methoxy-d2)pyrido[4,3-d]pyrimidin-7-yl)-5-methyl-4-(trifluoromethyl)aniline]", "values": [{"measurement": "IC50", "value": "50 to 500", "unit": "nM"}]}, {"compound": "[2H]C([2H])(Oc1nc(N2CCOC[C@H]3[C@H](F)[C@H]32)c2cnc(-c3cc(N)cc(Cl)c3C(F)(F)F)c(F)c2n1)[C@@]12CCCN1C[C@H](F)C2", "note": "[Example 272, 3-chloro-5-(8-fluoro-4-((1S,7S,8S)-8-fluoro-5-oxa-2-azabicyclo[5.1.0]octan-2-yl)-2-(((2R,7aS)-2-fluorotetrahydro-1H-pyrrolizin-7a(5H)-yl)methoxy-d2)pyrido[4,3-d]pyrimidin-7-yl)-4-(trifluoromethyl)aniline]", "values": [{"measurement": "IC50", "value": "< 50", "unit": "nM"}]}, {"compound": "[2H]c1c(F)c(C#C)c2c(-c3ncc4c(N5CCOC[C@H]6[C@H](F)[C@H]65)nc(OC([2H])([2H])[C@@]56CCCN5C[C@H](F)C6)nc4c3F)cc(N)cc2c1[2H]", "note": "[Example 273, 5-ethynyl-6-fluoro-4-(8-fluoro-4-((1S,7S,8S)-8-fluoro-5-oxa-2-azabicyclo[5.1.0]octan-2-yl)-2-(((2R,7aS)-2-fluorotetrahydro-1H-pyrrolizin-7a(5H)-yl)methoxy-d2)pyrido[4,3-d]pyrimidin-7-yl)naphthalen-7,8-d2-2-amine]", "values": [{"measurement": "IC50", "value": "< 50", "unit": "nM"}]}, {"compound": "[2H]C([2H])(Oc1nc(N2CCOC[C@H]3[C@H](F)[C@H]32)c2cnc(-c3cc(N)cc4ccc(F)c(C#C)c34)c(F)c2n1)[C@@]12CCCN1C[C@H](C#N)C2", "note": "[Example 276, (2R,7aS)-7a-(((7-(3-amino-8-ethynyl-7-fluoronaphthalen-1-yl)-8-fluoro-4-((1S,7S,8S)-8-fluoro-5-oxa-2-azabicyclo[5.1.0]octan-2-yl)pyrido[4,3-d]pyrimidin-2-yl)oxy)methyl-d2)hexahydro-1H-pyrrolizine-2-carbonitrile]", "values": [{"measurement": "IC50", "value": "< 50", "unit": "nM"}]}, {"compound": "C#Cc1c(F)ccc2cc(N)cc(-c3ncc4c(N5CCOC[C@H]6[C@H](F)[C@H]65)nc(OC[C@@]56CCCN5[C@H](C)[C@H](F)C6)nc4c3F)c12", "note": "[Example 277, 5-ethynyl-6-fluoro-4-(8-fluoro-2-(((2R,3R,7aS)-2-fluoro-3-methyltetrahydro-1H-pyrrolizin-7a(5H)-yl)methoxy)-4-((1S,7S,8S)-8-fluoro-5-oxa-2-azabicyclo[5.1.0]octan-2-yl)pyrido[4,3-d]pyrimidin-7-yl)naphthalen-2-amine]", "values": [{"measurement": "IC50", "value": "< 50", "unit": "nM"}]}, {"compound": "C#Cc1c(F)ccc2cc(N)cc(-c3ncc4c(N5CCOC[C@H]6[C@H](F)[C@H]65)nc(OC[C@@]56CCCN5[C@@H](C)[C@H](F)C6)nc4c3F)c12", "note": "[Example 278, 5-ethynyl-6-fluoro-4-(8-fluoro-2-(((2R,3S,7aS)-2-fluoro-3-methyltetrahydro-1H-pyrrolizin-7a(5H)-yl)methoxy)-4-((1S,7S,8S)-8-fluoro-5-oxa-2-azabicyclo[5.1.0]octan-2-yl)pyrido[4,3-d]pyrimidin-7-yl)naphthalen-2-amine]", "values": [{"measurement": "IC50", "value": "< 50", "unit": "nM"}]}, {"compound": "[2H]C([2H])(Oc1nc(N2CCOC[C@H]3[C@H](F)[C@H]32)c2cnc(-c3c(F)c(N)c(F)c(C)c3C(F)(F)F)c(F)c2n1)[C@@]12CCCN1C[C@H](F)C2", "note": "[Example 279, 2,6-difluoro-3-(8-fluoro-4-((1S,7S,8S)-8-fluoro-5-oxa-2-azabicyclo[5.1.0]octan-2-yl)-2-(((2R,7aS)-2-fluorotetrahydro-1H-pyrrolizin-7a(5H)-yl)methoxy-d2)pyrido[4,3-d]pyrimidin-7-yl)-5-methyl-4-(trifluoromethyl)aniline]", "values": [{"measurement": "IC50", "value": "50 to 500", "unit": "nM"}]}, {"compound": "C#Cc1c(F)ccc2cc(O)cc(-c3ncc4c(N5CCCO[C@@H]6C[C@@H]65)nc(OC[C@H]5CCCN5C)nc4c3F)c12", "note": "[Example 280, 4-(4-((1R,7S)-2-oxa-6-azabicyclo[5.1.0]octan-6-yl)-8-fluoro-2-(((R)-1-methylpyrrolidin-2-yl)methoxy)pyrido[4,3-d]pyrimidin-7-yl)-5-ethynyl-6-fluoronaphthalen-2-ol]", "values": [{"measurement": "IC50", "value": "50 to 500", "unit": "nM"}]}, {"compound": "C#Cc1c(F)ccc2cc(O)cc(-c3ncc4c(N5CCCO[C@H]6C[C@H]65)nc(OC[C@@]5(C)CCCN5)nc4c3F)c12", "note": "[Example 281, 4-(4-((1S,7R)-2-oxa-6-azabicyclo[5.1.0]octan-6-yl)-8-fluoro-2-(((R)-2-methylpyrrolidin-2-yl)methoxy)pyrido[4,3-d]pyrimidin-7-yl)-5-ethynyl-6-fluoronaphthalen-2-ol]", "values": [{"measurement": "IC50", "value": "500 to 10000", "unit": "nM"}]}, {"compound": "C#Cc1c(F)ccc2cc(O)cc(-c3ncc4c(N5CCCO[C@@H]6C[C@@H]65)nc(OC[C@@]5(C)CCCN5)nc4c3F)c12", "note": "[Example 282, 4-(4-((1R,7S)-2-oxa-6-azabicyclo[5.1.0]octan-6-yl)-8-fluoro-2-(((R)-2-methylpyrrolidin-2-yl)methoxy)pyrido[4,3-d]pyrimidin-7-yl)-5-ethynyl-6-fluoronaphthalen-2-ol]", "values": [{"measurement": "IC50", "value": "500 to 10000", "unit": "nM"}]}, {"compound": "C#Cc1c(F)ccc2cc(O)cc(-c3ncc4c(N5CCCO[C@H]6C[C@H]65)nc(OC[C@@]5(C)CCCN5C)nc4c3F)c12", "note": "[Example 283, 4-(4-((1S,7R)-2-oxa-6-azabicyclo[5.1.0]octan-6-yl)-2-(((R)-1,2-dimethylpyrrolidin-2-yl)methoxy)-8-fluoropyrido[4,3-d]pyrimidin-7-yl)-5-ethynyl-6-fluoronaphthalen-2-ol]", "values": [{"measurement": "IC50", "value": "< 50", "unit": "nM"}]}]}
